Target: Human FXIa (Homo sapiens (Human), UniProt P03951)
Experiment: Determination of the % inhibition for FXIa
Format: biochemical
Settings: 40 μM test compound, 25° C., substrate Z-Gly-Pro-Arg-AFC
Protocol: Determination of the % inhibition for FXIa
Human FXIa (Enzyme Research Laboratories) was incubated at 25° C. with the fluorogenic substrate Z-Gly-Pro-Arg-AFC and 40 μM of the test compound. Residual enzyme activity (initial rate of reaction) was determined by measuring the change in […].

Human FXIa, sequence (P03951 388-625): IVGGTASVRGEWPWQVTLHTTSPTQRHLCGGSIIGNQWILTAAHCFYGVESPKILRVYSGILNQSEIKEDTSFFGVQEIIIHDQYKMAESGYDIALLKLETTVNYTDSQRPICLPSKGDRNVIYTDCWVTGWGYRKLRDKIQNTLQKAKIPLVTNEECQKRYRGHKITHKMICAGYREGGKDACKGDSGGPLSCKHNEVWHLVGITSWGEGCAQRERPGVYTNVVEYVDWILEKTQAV
Human FXIa, sequence (P03951 19-387 partner): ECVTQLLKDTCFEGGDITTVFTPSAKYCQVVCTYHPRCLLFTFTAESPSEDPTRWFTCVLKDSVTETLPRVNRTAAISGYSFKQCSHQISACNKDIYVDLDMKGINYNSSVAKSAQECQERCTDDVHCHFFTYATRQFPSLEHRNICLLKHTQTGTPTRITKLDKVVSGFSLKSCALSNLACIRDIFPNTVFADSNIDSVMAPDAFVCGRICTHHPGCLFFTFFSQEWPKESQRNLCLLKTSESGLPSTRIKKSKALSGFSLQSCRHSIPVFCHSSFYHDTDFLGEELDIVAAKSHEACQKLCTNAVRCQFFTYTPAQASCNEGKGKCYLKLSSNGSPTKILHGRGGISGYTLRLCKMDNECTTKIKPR

% Inhibition @ 40 μM (human FXIa) | Structure (SMILES)
0% | NC(=O)c1cccc(CNC(=O)c2cn(Cc3ccc(Cn4ccccc4=O)cc3)nc2C2CC2)c1 [Example 49, N-[(3-carbamoylphenyl)methyl]-3-cyclopropyl-1-({4-[(2-oxopyridin-1-yl)methyl]phenyl}methyl)pyrazole-4-carboxamide]
0% | Nc1nn(Cc2ccc(Cn3ccccc3=O)cc2)cc1C(=O)NCc1ccc(OC(F)(F)F)cc1 [Example 58, 3-amino-1-({4-[(2-oxopyridin-1-yl)methyl]phenyl}methyl)-N-{[4-(trifluoromethoxy)phenyl]methyl}pyrazole-4-carboxamide]

Structure (SMILES) | % Inhibition @ 40 μM (human FXIa)
COc1cccc(CNC(=O)c2cn(Cc3ccc(Cn4ccccc4=O)cc3)nc2C2CC2)c1F [Example 52, 3-cyclopropyl-N-[(2-fluoro-3-methoxyphenyl)methyl]-1-({4-[(2-oxopyridin-1-yl)methyl]phenyl}methyl)pyrazole-4-carboxamide] | 1%

Reference: patent US11198691B2, “N-((het)arylmethyl)-heteroaryl-carboxamides compounds as kallikrein inhibitors” (KalVista Pharmaceuticals Limited, priority 2014, dated 2021)
